For test [1], the system named is L1210. Kind of test: Cytotoxicity against mouse L1210 cells. Format: functional, cell-based.
Test [2] deals with L1210. Kind of test: Antitumor activity against mouse L1210 cells implanted in mouse assessed as increase in survival. Format: functional.
The test system of another test is Candida albicans. Kind of test: Antifungal activity against Candida albicans at 1.25 mg/6.4 mm disk. Format: functional.

Structures are written as SMILES. ≈ marks a conversion by molar mass, not a printed value.

`COC(=O)c1cn([C@@H]2O[C@H](CO)[C@@H](O)[C@H]2O)c2ncnc(N)c12`: the IC50 – broadly, the concentration at which inhibition is half-maximal – with L1210 [1] is 0.027 µg/mL (≈ 0.0833 µM). Besides, in the test on L1210 [2], the Activity is 39%.

In the case of `N#Cc1cn([C@@H]2O[C@H](CO)[C@@H](O)[C@H]2O)c2ncnc(N)c12` [TOYOCAMYCIN], the “inhibition zone (IZ)” value in the test on Candida albicans turned out to be 13 mm. In addition, inhibition with L1210 [1] was half-maximal at 0.0026 µg/mL (≈ 0.00893 µM) (IC50).

The values above are taken from ChEMBL document CHEMBL1147324, “The isolation and structure of modified bioactive nucleosides from Jaspis johnstoni” (J Nat Prod, 1989).
